In PubChem BioAssay (NCI):
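48-hour exposure; five concentrations; linearly interpolated endpoints. Definition used: TGI = concentration required for complete inhibition of growth.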

Assays:
Assay in all cases: inhibition of tumour cell growth, NCI panel, 48 h
NCI-H23 lung = tested on: NCI-H23 lung
MDA-MB-435 = tested on: MDA-MB-435
K-562 leukemia = tested on: K-562 leukemia
HCT-116 colon = tested on: HCT-116 colon
BT-549 breast = tested on: BT-549 breast
NCI-H226 lung = tested on: NCI-H226 lung
MCF7 breast = tested on: MCF7 breast
SNB-75 CNS = tested on: SNB-75 CNS
TK-10 renal = tested on: TK-10 renal
SN12C renal = tested on: SN12C renal
RPMI-8226 leukemia = tested on: RPMI-8226 leukemia
MDA-MB-231 breast = tested on: MDA-MB-231 breast
NCI-H460 lung = tested on: NCI-H460 lung
SNB-19 CNS = tested on: SNB-19 CNS
DU-145 prostate = tested on: DU-145 prostate
SK-MEL-28 melanoma = tested on: SK-MEL-28 melanoma
SW-620 colon = tested on: SW-620 colon
A549 NSCLC = tested on: A549 NSCLC
MALME-3M melanoma = tested on: MALME-3M melanoma
T-47D breast = tested on: T-47D breast
OVCAR-4 ovarian = tested on: OVCAR-4 ovarian
HS 578T breast = tested on: HS 578T breast
HCT-15 colon = tested on: HCT-15 colon
KM12 colon = tested on: KM12 colon
M14 melanoma = tested on: M14 melanoma
UO-31 renal = tested on: UO-31 renal
OVCAR-3 ovarian = tested on: OVCAR-3 ovarian
MOLT-4 leukemia = tested on: MOLT-4 leukemia
A498 renal = tested on: A498 renal
OVCAR-8 ovarian = tested on: OVCAR-8 ovarian
HT29 colon = tested on: HT29 colon
UACC-62 melanoma = tested on: UACC-62 melanoma
U251 CNS = tested on: U251 CNS
OVCAR-5 ovarian = tested on: OVCAR-5 ovarian
HOP-62 NSCLC = tested on: HOP-62 NSCLC
RXF 393 renal = tested on: RXF 393 renal
SK-MEL-5 melanoma = tested on: SK-MEL-5 melanoma
HOP-92 NSCLC = tested on: HOP-92 NSCLC
SF-295 CNS = tested on: SF-295 CNS
SK-OV-3 ovarian = tested on: SK-OV-3 ovarian
SK-MEL-2 melanoma = tested on: SK-MEL-2 melanoma
IGROV1 ovarian = tested on: IGROV1 ovarian
UACC-257 melanoma = tested on: UACC-257 melanoma
PC-3 prostate = tested on: PC-3 prostate
NCI-H522 lung = tested on: NCI-H522 lung
EKVX NSCLC = tested on: EKVX NSCLC
MDA-N = tested on: MDA-N
NCI/ADR-RES ovarian = tested on: NCI/ADR-RES ovarian
SF-268 CNS = tested on: SF-268 CNS
ACHN renal = tested on: ACHN renal
CAKI-1 renal = tested on: CAKI-1 renal
SF-539 CNS = tested on: SF-539 CNS
CCRF-CEM leukemia = tested on: CCRF-CEM leukemia
LOX IMVI melanoma = tested on: LOX IMVI melanoma
786-0 renal = tested on: 786-0 renal
COLO 205 colon = tested on: COLO 205 colon
HCC-2998 colon = tested on: HCC-2998 colon
HL-60(TB) leukemia = tested on: HL-60(TB) leukemia

`O=C1NC(=O)C2(CCCCCC2)N1` gave a TGI (NCI-H23 lung) of over 100 µM, a TGI (MDA-MB-435) of over 100 µM and a TGI (K-562 leukemia) of over 100 µM. The TGI (HCT-116 colon) was over 100 µM, the TGI (BT-549 breast) was over 100 µM and the TGI (NCI-H226 lung) was over 100 µM. It also gave a TGI (MCF7 breast) of over 100 µM, a TGI (SNB-75 CNS) of over 100 µM and a TGI (TK-10 renal) of over 100 µM. For the same compound, the TGI (SN12C renal) was over 100 µM, the TGI (RPMI-8226 leukemia) was over 100 µM and the TGI (MDA-MB-231 breast) was over 100 µM. For the same compound, the TGI (NCI-H460 lung) was over 100 µM, the TGI (SNB-19 CNS) was over 100 µM and the TGI (DU-145 prostate) was over 100 µM. The TGI (SK-MEL-28 melanoma) was over 100 µM, the TGI (SW-620 colon) was over 100 µM and the TGI (A549 NSCLC) was over 100 µM. It also gave a TGI (MALME-3M melanoma) of over 100 µM, a TGI (T-47D breast) of over 100 µM and a TGI (OVCAR-4 ovarian) of over 100 µM. It also gave a TGI (HS 578T breast) of over 100 µM, a TGI (HCT-15 colon) of over 100 µM and a TGI (KM12 colon) of over 100 µM. For the same compound, the TGI (M14 melanoma) was over 100 µM, the TGI (UO-31 renal) was over 100 µM and the TGI (OVCAR-3 ovarian) was over 100 µM. For the same compound, the TGI (MOLT-4 leukemia) was over 100 µM, the TGI (A498 renal) was over 100 µM and the TGI (OVCAR-8 ovarian) was over 100 µM. The TGI (HT29 colon) was over 100 µM, the TGI (UACC-62 melanoma) was over 100 µM and the TGI (U251 CNS) was over 100 µM. For the same compound, the TGI (OVCAR-5 ovarian) was over 100 µM, the TGI (HOP-62 NSCLC) was over 100 µM and the TGI (RXF 393 renal) was over 100 µM. The TGI (SK-MEL-5 melanoma) was over 100 µM, the TGI (HOP-92 NSCLC) was over 100 µM and the TGI (SF-295 CNS) was over 100 µM. The TGI (SK-OV-3 ovarian) was over 100 µM, the TGI (SK-MEL-2 melanoma) was over 100 µM and the TGI (IGROV1 ovarian) was over 100 µM. The TGI (UACC-257 melanoma) was over 100 µM, the TGI (PC-3 prostate) was over 100 µM and the TGI (NCI-H522 lung) was over 100 µM. For the same compound, the TGI (EKVX NSCLC) was over 100 µM, the TGI (MDA-N) was over 100 µM and the TGI (NCI/ADR-RES ovarian) was over 100 µM. The TGI (SF-268 CNS) was over 100 µM, the TGI (ACHN renal) was over 100 µM and the TGI (CAKI-1 renal) was over 100 µM. It also gave a TGI (SF-539 CNS) of over 100 µM, a TGI (CCRF-CEM leukemia) of over 100 µM and a TGI (LOX IMVI melanoma) of over 100 µM. It also gave a TGI (786-0 renal) of over 100 µM and a TGI (COLO 205 colon) of over 100 µM.

`CC(=O)NC(c1nc2cc(C)c(C)cc2[nH]1)c1nc2cc(C)c(C)cc2[nH]1` showed a TGI (NCI-H23 lung) of over 100 µM, a TGI (MDA-MB-435) of 42.3 µM and a TGI (K-562 leukemia) of over 100 µM. It also gave a TGI (HCT-116 colon) of 53.7 µM, a TGI (BT-549 breast) of 61.6 µM and a TGI (HCC-2998 colon) of 34.6 µM. It also gave a TGI (MCF7 breast) of over 100 µM, a TGI (SNB-75 CNS) of 50.7 µM and a TGI (TK-10 renal) of 89.1 µM. It also gave a TGI (SN12C renal) of 77.4 µM, a TGI (RPMI-8226 leukemia) of 46.4 µM and a TGI (MDA-MB-231 breast) of 76 µM. It also gave a TGI (NCI-H460 lung) of 32.8 µM, a TGI (SNB-19 CNS) of over 100 µM and a TGI (DU-145 prostate) of 57.7 µM. It also gave a TGI (SK-MEL-28 melanoma) of 53.4 µM, a TGI (SW-620 colon) of over 100 µM and a TGI (A549 NSCLC) of 65.2 µM. It also gave a TGI (MALME-3M melanoma) of 83.7 µM, a TGI (T-47D breast) of over 100 µM and a TGI (OVCAR-4 ovarian) of 72.8 µM. For the same compound, the TGI (HS 578T breast) was 79.2 µM, the TGI (HCT-15 colon) was 60 µM and the TGI (KM12 colon) was 34.2 µM. The TGI (M14 melanoma) was over 100 µM, the TGI (UO-31 renal) was 53.2 µM and the TGI (OVCAR-3 ovarian) was 42.2 µM. For the same compound, the TGI (MOLT-4 leukemia) was 26.6 µM, the TGI (A498 renal) was 35.4 µM and the TGI (OVCAR-8 ovarian) was 47.5 µM. For the same compound, the TGI (HT29 colon) was 78.1 µM, the TGI (UACC-62 melanoma) was over 100 µM and the TGI (U251 CNS) was 57.9 µM. The TGI (OVCAR-5 ovarian) was over 100 µM, the TGI (RXF 393 renal) was 84.8 µM and the TGI (SK-MEL-5 melanoma) was 32 µM. For the same compound, the TGI (HOP-92 NSCLC) was 43.3 µM, the TGI (SF-295 CNS) was 49.1 µM and the TGI (SK-OV-3 ovarian) was 71.9 µM. For the same compound, the TGI (SK-MEL-2 melanoma) was over 100 µM, the TGI (IGROV1 ovarian) was 58.9 µM and the TGI (UACC-257 melanoma) was 71.1 µM. For the same compound, the TGI (PC-3 prostate) was 94.7 µM, the TGI (NCI-H522 lung) was 18 µM and the TGI (EKVX NSCLC) was 84.8 µM. The TGI (MDA-N) was 48.6 µM, the TGI (NCI/ADR-RES ovarian) was 89.2 µM and the TGI (SF-268 CNS) was over 100 µM. For the same compound, the TGI (ACHN renal) was over 100 µM, the TGI (CAKI-1 renal) was 52.2 µM and the TGI (SF-539 CNS) was 30.5 µM. It also gave a TGI (CCRF-CEM leukemia) of 37 µM, a TGI (HL-60(TB) leukemia) of over 100 µM and a TGI (LOX IMVI melanoma) of 59.1 µM. The TGI (COLO 205 colon) was 43.4 µM.
